Measurements published in patent US5218123A, “Didehydrotryptophan derivatives and pharmaceutical use thereof” (Warner-Lambert Company, priority 1992, dated 1993).

Legend:
[1] = test system: hyperactivity caused by the injection of amphetamine into the nucleus accumbens of the rat; test: Reduction of hyperactivity caused by intra-accumbens amphetamine (locomotor activity, antipsychotic test); format: in vivo, rat (male Sprague Dawley (CD) Bradford strain); settings: bilateral injection of amphetamine (20 μg) into the nucleus accumbens, 20 to 40 minutes after injection
Description: The compounds of the instant invention are useful as antipsychotic agents. The compounds are tested for their ability to reduce the effects of intra-accumbens amphetamine in the rat as described hereinafter.
Male Sprague Dawley (CD) Bradford strain rats are used. The rats are housed in groups of five at a temperature of 21°±2° C. on a 12-hour light-dark cycle of lights-on between 07 hours 00 minutes and 20 hours 00 minutes. Rats are fed CRM diet (Labsure) and allowed water ad libitum.
Rats are anesthetized with chloral hydrate (400 mg/kg^-1 SC) and placed in a Kopf stereotaxic frame. Chronically indwelling guide cannulae (constructed of stainless steel tubing 0.65 mm diameter held bilaterally on Parspex holders) are implanted using standard stereotaxic techniques to terminate 3.5 mm above the center of the nucleus accumbens (Ant. 9.4, Vert. 0.0, Lat. 1.6) or 5.0 mm above the central nucleus of the amygdala (Ant. 5.8, Vert. -1.8, lat. ±4.5) (atlas of De Groot, 1959). The guides are kept patent during a 14 day recovery period using stainless steel stylets, 0.3 mm diameter, which extend 0.5 mm beyond the guide tips.
Rats are manually restrained and the stylets removed. […]
The abilities of the compounds (20) and (20A) to inhibit the hyperactivity caused by the injection of amphetamine into the nucleus accumbens of the rat is measured. […]

Central CCK-B Receptors = molecular target: T1, Central CCK-B Receptors (Mus musculus, UniProt P56481); test: Binding to central CCK-B receptors: displacement of tritiated-pentagastrin from cerebral cortical membranes; set-up: species or system mouse (male CFLP mice); settings: tritiated-pentagastrin 2 nM, 23° C., pH 7.2
T1 construct: from tissue; host or cells: cerebral cortex membranes of male CFLP mice (30 to 40 g)
T1 sequence (P56481 1-453): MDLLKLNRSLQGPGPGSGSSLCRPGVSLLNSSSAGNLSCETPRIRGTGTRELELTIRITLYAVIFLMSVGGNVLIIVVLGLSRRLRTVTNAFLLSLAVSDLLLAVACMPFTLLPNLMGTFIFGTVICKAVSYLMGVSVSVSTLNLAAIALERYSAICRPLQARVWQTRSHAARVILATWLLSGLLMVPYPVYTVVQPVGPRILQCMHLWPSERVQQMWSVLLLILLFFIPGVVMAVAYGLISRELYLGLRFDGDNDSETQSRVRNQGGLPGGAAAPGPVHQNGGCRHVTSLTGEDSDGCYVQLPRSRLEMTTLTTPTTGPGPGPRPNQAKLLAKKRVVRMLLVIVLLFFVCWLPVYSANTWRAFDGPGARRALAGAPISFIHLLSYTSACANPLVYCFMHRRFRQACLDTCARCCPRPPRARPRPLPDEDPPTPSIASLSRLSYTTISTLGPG
Description: The biological activity of compounds of the present invention was evaluated employing an initial screening test which rapidly and accurately measured the binding of the tested compound to known CCK receptor sites. […] (See Hays, et al, Neuropeptides 1:53-62, 1980; and Satuer et al, Science 208:1155-1156, 1980.)
In this screening test, the cerebral cortices taken from male CFLP mice weighing between 30 to 40 g were dissected on ice, weighed, and homogenized in 10 volumes of 50 mM Tris-HCl buffer (pH 7.4 at 0°-4° C.). The resulting suspension was centrifuged, the supernate was discarded, and the pellet was washed by resuspension in Tris-HCl buffer followed by recentrifugation. The final pellet was resuspended in 20 volumes of […] buffer (pH 7.2 at 23° C.) containing 130 mM NaCl, […], […], […], 5 mg/mL bovine albumin, and bacitracin (0.25 mg/mL).
In saturation studies, cerebral cortical membranes were incubated at 23° C. for 120 minutes in a final volume of 500 μL of Hepes incubation buffer (pH 7.2) together with 0.2-20 nM tritiated-pentagastrin (Amersham International, England).
In the displacement experiments, membranes were incubated with a single concentration (2 nM) of ligand, together with increasing concentrations ([…] to 10^-4 M) of competitive test compound. In each case, the nonspecific binding was defined as that persisting in the presence of the unlabeled octapeptide CCK26-33 (10^-6 M).
Following incubation, radioactivity bound to membranes was separated from that free in solution by rapid filtration through Whatman GF/B filters and washed three times with 4 mL of ice cold Tris-HCl buffer. Filters from samples incubated with tritiated pentagastrin were placed in polyethylene vials with 4 mL of scintillation cocktail, and the radioactivity was estimated by liquid scintillation spectrometry (efficiency 47% to 52%).
The specific binding to CCK receptor sites was defined as the total bound tritiated-pentagastrin minus the amount of tritiated-pentagastrin bound in the presence of 10^-6 octapeptide, CCK26-33.
Saturation curves for specific tritiated-pentagastrin binding to mouse cortical membranes were analyzed by the methods of Scatchard (Ann. New York Acad. Sci. 51:660-672, 1949), and Hill (J. Physiol. 40:IV-VIII, 1910), to provide estimates for the maximum number of binding sites (Bmax) and the equilibrium dissociation constant (Ka).
In displacement experiments, inhibition curves were analyzed by either logit-log plots or the iterative curve fitting computer program ALLFIT (DeLean, Munson, and Redbard, 1978) to provide estimates of the IC50 and nH (apparent Hill coefficient values). (IC50 values were defined as the concentration of test compound required to produce 50% inhibition of specific binding.)
The inhibition constant (Ki) of the test compound was then calculated according to the Cheng Prusoff equation: [formula] where [L]is the concentration of radiolabel and Ka is the equilibrium dissociation constant.
^a Binding affinity protocol Horwell, et al, J. Med. Chem. 34:404,

For `CC(N)Cc1ccccc1` (stereo not shown) [amphetamine], the peak hyperactivity [1] was 50 to 60 counts 5 minutes^-1.
Molecule `O=C(O)CC(=O)Nc1ccccc1CCNC(=O)/C(=C/c1c[nH]c2ccccc12)NC(=O)OC1C2CC3CC(C2)CC1C3` (stereo not shown) [Example 4, (Z)-3-[[2-[2-[[3-(1H-indol-3-yl)-1-oxo-2-[[(tricyclo[3.3.1.1^3,7]dec-2-yloxy)carbonyl]amino]-2-propenyl]amino]ethyl]phenyl]amino]-3-oxopropanoic acid] has a Ki (Central CCK-B Receptors) of 209 nM.
For `O=C(N/C(=C\c1c[nH]c2ccccc12)C(=O)NCCc1ccccn1)OC1C2CC3CC(C2)CC1C3` (stereo not shown) [Example 3, Tricyclo[3.3.1.1^3,7]dec-2-yl (Z)-[1-(1H-indol-3-ylmethylene) -2-oxo-2-[[2-(2-pyridinyl)ethyl]amino]ethyl]carbamate], the Ki (Central CCK-B Receptors) was 507 nM.
In the case of `O=C(O)C[C@H](Cc1ccccc1)NC(=O)C(=Cc1c[nH]c2ccccc12)NC(=O)OC1C2CC3CC(C2)CC1C3` (mixture of isomers) [Example 5, (E/Z)-N-[α,β-Didehydro-N-[(tricyclo[3.3.1.1^3,7]dec-2-yloxy)carbonyl]tryptophyl]-L-3-(phenylmethyl)-β-alanine], the Ki (Central CCK-B Receptors) is reported as 0.3 nM.
`O=C(O)C[C@H](Cc1ccccc1)NC(=O)/C(=C/c1c[nH]c2ccccc12)NC(=O)OC1C2CC3CC(C2)CC1C3` (stereo partly drawn) [Example 2, (Z)-N-[α,β-Didehydro-N-[(tricyclo[3.3.1.1^3,7]dec-2-yloxy)carbonyl]tryptophyl]-L -3-(phenylmethyl)-β-alanine] gave a Ki (Central CCK-B Receptors) of 13 nM.
For `O=C(N/C(=C\c1c[nH]c2ccccc12)C(=O)NCCc1ccccc1)OC1C2CC3CC(C2)CC1C3` (stereo not shown) [Example 1, Carbamic acid, [1-(1H-indol-3-ylmethylene)-2-oxo-2-[(2-phenylethyl)amino]ethyl]-, tricyclo[3.3.1.1^3,7]dec-2-yl ester, (Z)-], the Ki (Central CCK-B Receptors) was 1520 nM.
`COC(=O)CC(=O)Nc1ccccc1CCNC(=O)/C(=C/c1c[nH]c2ccccc12)NC(=O)OC1C2CC3CC(C2)CC1C3` (stereo not shown) [4, step 2] showed a Ki (Central CCK-B Receptors) of 616 nM.
